Experimental data from patent publication US20260364184A1, “COMPOUND BASED ON OXOISOINDOLINYL-SUBSTITUTED TETRAHYDROPYRIMIDINE-DIONE AND USE THEREOF” (GLUETACS THERAPEUTICS (SHANGHAI) CO., LTD., priority 2023, published 2026).

Columns and labels:
Format in all cases: cell-based
[1] = target: T1, CDK4 (Homo sapiens, UniProt P11802+Q96SW2); test: Western blot degradation of CDK4; settings: MDA-MB-231 Cell; 24 hours
T1 construct: expression of target proteins in cells; endogenous in cells
Method: (§1) Conventional Western blot assay was performed to evaluate the effects of the compounds of the present disclosure on the expression of target proteins in cells.
(§2) (1) Cell Seeding and Protein Harvesting: The selected cells were processed according to the cell seeding procedure and protein harvesting procedure in Table II-2.
(§3) (2) To the collected supernatant, 5×SDS sample loading buffer was added, followed by denaturation at 95 °C for 5 minutes. The denatured samples were then separated by SDS-PAGE electrophoresis on a polyacrylamide gel. Proteins were transferred to a nitrocellulose membrane (0.45 μm NC membrane), blocked with blocking buffer at room temperature for 1 hour, and subjected to antibody incubation and development procedures according to the antibody manufacturer's instructions (Cell Signaling Technology).
(§4) Half-Maximal Degradation Concentration value (the drug concentration required for degrading proteins by 50%, abbreviated as DC50) reads method: comparing the grayscale values of Western blot bands from drug-treated samples with those from blank DMSO-treated controls, and identifying the drug concentration range at which the grayscale value is half that of the DMSO-treated control bands.
(§5) DC50 values can be calculated using ImageJ software to measure grayscale values of Western blot bands from drug-treated samples. The concentration-response curve is fitted to estimate the drug concentration corresponding to half the grayscale value.
(§6) Target protein remaining (%) refers to the percentage of target protein remaining in cells after treatment with protein degrader compounds.
(§7) Calculation method for target protein remaining (%): Use ImageJ software to measure grayscale values of Western blot bands from drug (protein degrader)-treated samples. The grayscale value of drug-treated bands is divided by that of internal control protein bands, and the resulting quotient is normalized to obtain the relative percentage of remaining target protein after protein degrader treatment.
(§8) Target protein degradation rate (%)=1−target protein remaining (%).

[2] = target: T2, CDK6 (Homo sapiens, UniProt Q00534+Q96SW2); test: Western blot degradation of CDK6; settings: MDA-MB-231 Cell; 24 hours
T2 construct: expression of target proteins in cells; endogenous in cells
T2 sequence (Q00534 whole entry): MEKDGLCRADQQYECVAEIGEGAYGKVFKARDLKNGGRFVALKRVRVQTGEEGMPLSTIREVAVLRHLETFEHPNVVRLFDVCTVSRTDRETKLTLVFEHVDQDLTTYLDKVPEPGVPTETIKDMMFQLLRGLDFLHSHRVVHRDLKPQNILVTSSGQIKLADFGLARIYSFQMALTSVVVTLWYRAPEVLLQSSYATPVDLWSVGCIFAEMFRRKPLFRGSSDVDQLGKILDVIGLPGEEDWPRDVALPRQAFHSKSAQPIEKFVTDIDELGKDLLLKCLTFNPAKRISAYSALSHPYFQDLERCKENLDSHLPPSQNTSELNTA
T2 sequence (Q96SW2 whole entry): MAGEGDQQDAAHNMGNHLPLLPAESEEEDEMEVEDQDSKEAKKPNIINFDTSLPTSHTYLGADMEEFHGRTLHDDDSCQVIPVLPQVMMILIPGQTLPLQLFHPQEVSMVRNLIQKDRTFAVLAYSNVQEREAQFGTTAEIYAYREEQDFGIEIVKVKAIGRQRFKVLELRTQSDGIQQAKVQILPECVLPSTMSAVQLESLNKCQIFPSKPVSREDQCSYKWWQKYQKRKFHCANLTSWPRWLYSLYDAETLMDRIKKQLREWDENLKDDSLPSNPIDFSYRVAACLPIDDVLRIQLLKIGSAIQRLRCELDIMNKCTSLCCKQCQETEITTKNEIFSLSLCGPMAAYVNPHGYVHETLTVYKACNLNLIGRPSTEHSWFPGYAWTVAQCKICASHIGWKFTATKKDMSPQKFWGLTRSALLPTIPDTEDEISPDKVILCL
T2 sequence (Q16531 whole entry partner): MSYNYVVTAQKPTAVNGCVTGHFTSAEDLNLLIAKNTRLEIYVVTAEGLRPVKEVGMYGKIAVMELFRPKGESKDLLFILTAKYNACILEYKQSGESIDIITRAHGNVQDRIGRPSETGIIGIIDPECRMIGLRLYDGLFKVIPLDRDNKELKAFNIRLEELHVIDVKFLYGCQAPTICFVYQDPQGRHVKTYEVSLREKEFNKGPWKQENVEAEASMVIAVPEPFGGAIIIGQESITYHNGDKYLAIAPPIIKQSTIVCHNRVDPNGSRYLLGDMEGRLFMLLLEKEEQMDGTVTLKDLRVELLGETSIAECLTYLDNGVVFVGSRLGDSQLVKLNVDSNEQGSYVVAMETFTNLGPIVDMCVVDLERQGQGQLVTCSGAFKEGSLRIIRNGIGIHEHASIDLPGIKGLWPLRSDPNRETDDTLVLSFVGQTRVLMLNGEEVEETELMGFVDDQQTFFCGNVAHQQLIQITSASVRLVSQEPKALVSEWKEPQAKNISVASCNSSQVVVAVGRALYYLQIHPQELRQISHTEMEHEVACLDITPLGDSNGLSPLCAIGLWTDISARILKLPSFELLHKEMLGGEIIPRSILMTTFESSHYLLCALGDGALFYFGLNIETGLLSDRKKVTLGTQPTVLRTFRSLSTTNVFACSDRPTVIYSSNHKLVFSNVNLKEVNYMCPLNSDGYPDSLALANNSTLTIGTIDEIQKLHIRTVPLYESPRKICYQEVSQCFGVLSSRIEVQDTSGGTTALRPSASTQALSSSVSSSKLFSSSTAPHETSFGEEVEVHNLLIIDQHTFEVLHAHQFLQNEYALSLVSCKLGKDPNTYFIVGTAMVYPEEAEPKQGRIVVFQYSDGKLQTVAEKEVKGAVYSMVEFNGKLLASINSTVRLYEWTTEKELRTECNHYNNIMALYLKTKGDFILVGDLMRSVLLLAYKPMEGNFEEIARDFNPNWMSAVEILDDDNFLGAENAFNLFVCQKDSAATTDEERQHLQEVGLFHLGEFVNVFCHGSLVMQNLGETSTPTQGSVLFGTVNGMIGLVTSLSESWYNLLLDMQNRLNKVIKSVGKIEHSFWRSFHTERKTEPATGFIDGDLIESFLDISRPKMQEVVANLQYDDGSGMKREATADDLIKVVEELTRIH
Method: as §1, §2, §3, §4, §5, §6, §7, §8

[3] = Inhibition of RPMI-8226 cell proliferation (CellTiter luminescent viability); settings: Homo sapiens; RPMI-8226; 10 nM; read-out: Inhibition Rate at 10 nM (%)
[4] = system: Human B-Cell Lymphoma Cells (RPMI-8226); test: as above; settings: RPMI-8226, 500 nM, read-out: Inhibition Rate at 500 nM (%)
[5] = system: Human lung cancer cell line (H292); test: Inhibition of H292 cell proliferation (CellTiter luminescent viability); settings: NCI-H292, Table IM1, CDK9 inhibitor-based, 96 hours; for inhibition at 0.01 µM: H292, 10 nM, read-out: Inhibition Rate at 10 nM (%); for inhibition at 0.5 µM: H292, 500 nM, read-out: Inhibition Rate at 500 nM (%)
Method: The tumor cells used herein were cultured in a cell culture medium listed in table 3 at 37 °C in an incubator with 5% CO2. Prior to experimentation, all cell lines used were correctly identified by STR profiling, and tested negative for mycoplasma contamination using a mycoplasma detection kit through routine screenings.
The IC50 values of the compounds of the present disclosure (including the compounds in Table 1, Table 2, and Examples 1-468) were determined using the CellTiter-Meiluncell Luminescent Cell Viability Assay Kit from Dalian Meilun Biotech Co., Ltd. The detailed procedure is as follows: Tumor cells were seeded in 96-well cell culture plates at the densities specified in Table 4. On the following day, the test compounds of the present disclosure were subjected to serial dilution. The dilution can be performed according to one of the following two methods: • (1) The first dilution method: The test compounds of the present disclosure (including the compounds in Table 1, Table 2, and Examples 1-468) were subjected to 5-fold serial dilutions starting from a highest concentration of 2000 μM, resulting in a total of 9 concentrations from high to low (2000, 400, 80, 16, 3.2, 0.64, 0.128, 0.0256, 0.00512 μM). Subsequently, 0.5 μL of the test compound dilution was transferred into the 96-well plate containing the cells, with each well containing 100 μL of cell culture medium. […] Into the 96-well plate, the diluted test compounds and corresponding detection reagents were added, resulting in final test compound concentrations of 500 nM and 10 nM, respectively. The experimental procedure is described below using the diluted 2 μM test compound as an example.
0.5 μL of the aforementioned diluted compound of the present disclosure (including the compounds in Table 1, Table 2, and Examples 1-468) was added to the seeded cells in 100 μL of medium, yielding a final test compound concentration of 10 nM. After the cells were treated with the compounds of the present disclosure for a specified period, the cell viability assay reagent was added to the culture medium according to the kit's instructions to determine cell viability. […] All controls were treated using the same procedure as the compounds of the present disclosure. The growth inhibition curves for the compounds of the present disclosure were plotted using Prism GraphPad software, and the IC50 values were calculated therefrom.

T1 sequence (P11802 whole entry): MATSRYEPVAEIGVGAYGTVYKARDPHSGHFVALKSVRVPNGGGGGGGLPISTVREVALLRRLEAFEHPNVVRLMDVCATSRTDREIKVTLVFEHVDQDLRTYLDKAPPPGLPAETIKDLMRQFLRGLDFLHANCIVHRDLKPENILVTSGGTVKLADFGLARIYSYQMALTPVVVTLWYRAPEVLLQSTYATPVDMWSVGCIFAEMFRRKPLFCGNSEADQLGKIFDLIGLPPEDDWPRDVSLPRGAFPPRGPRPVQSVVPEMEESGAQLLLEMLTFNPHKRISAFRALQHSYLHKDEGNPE
T1 sequence (Q96SW2 whole entry): as the sequence (Q96SW2 whole entry) above
T1 sequence (Q16531 whole entry partner): as the sequence (Q16531 whole entry partner) above

SMILES	Degradation of substrate protein CDK6 (substrate protein remaining %) [2]	Degradation of substrate protein CDK4 (substrate protein remaining %) [1]	inhibition at 0.01 µM [3]	inhibition at 0.5 µM [4]	inhibition at 0.01 µM [5]	inhibition at 0.5 µM [5]
Cc1nc2c(F)cc(-c3nc(Nc4ccc(N5CCN(Cc6ccc7c(c6)C(=O)N(N6CCC(=O)NC6=O)C7=O)CC5)cn4)ncc3F)cc2n1C(C)C [GT-06673, 2-(2,4-dioxotetrahydropyrimidin-1(2H)-yl)-5-((4-(6-((5-fluoro-4-(4-fluoro-1-isopropyl-2-methyl-1H-benzo[d]imidazol-6-yl)pyrimidin-2-yl)amino)pyridin-3-yl)piperazin-1-yl)methyl)isoindoline-1,3-dione]	A (0%≤substrate protein remaining %≤80%)	B (80%<substrate protein remaining %≤100%)				
CN(C)C(=O)c1cc2cnc(Nc3ccc(N4CCC(N(C)Cc5ccc6c(c5)C(=O)N(N5CCC(=O)NC5=O)C6=O)CC4)cn3)nc2n1C1CCCC1 [GT-06488, 7-cyclopentyl-2-((5-(4-(((2-(2,4-dioxotetrahydropyrimidin-1(2H)-yl)-1,3-dioxoisoindolin-5-yl)methyl)(methyl)amino)piperidin-1-yl)pyridin-2-yl)amino)-N,N-dimethyl-7H-pyrrolo[2,3-d]pyrimidine-6-carboxamide]	A (0%≤substrate protein remaining %≤80%)	B (80%<substrate protein remaining %≤100%)				
CN(C)C(=O)c1cc2cnc(Nc3ccc(N4CCC(CN5CCN(c6cc(F)c7c(c6)C(=O)N(N6CCC(=O)NC6=O)C7=O)CC5)CC4)cn3)nc2n1C1CCCC1 [GT-05204, 7-cyclopentyl-2-((5-(4-((4-(2-(2,4-dioxotetrahydropyrimidin-1(2H)-yl)-7-fluoro-1,3-dioxoisoindolin-5-yl)piperazin-1-yl)methyl)piperidin-1-yl)pyridin-2-yl)amino)-N,N-dimethyl-7H-pyrrolo[2,3-d]pyrimidine-6-carboxamide]	A (0%≤substrate protein remaining %≤80%)	B (80%<substrate protein remaining %≤100%)				
Cn1ncc(-c2nc(NC3CCN(Cc4ccc5c(c4)CN(N4CCC(=O)NC4=O)C5=O)CC3)ncc2Cl)c1CC1CC1 [GT-08212, 1-(5-((4-((5-chloro-4-(5-(cyclopropylmethyl)-1-methyl-1H-pyrazol-4-yl)pyrimidin-2-yl)amino)piperidin-1-yl)methyl)-1-oxoisoindolin-2-yl)dihydropyrimidine-2,4 (1H,3H)-dione]			20 to 30%	5 to 10%	20 to 30%	30 to 40%
O=C1CCN(N2Cc3cc(CN4CCN(c5ccc(CC(=O)Nc6cc(C7CCC7)[nH]n6)cc5)CC4)ccc3C2=O)C(=O)N1 [GT-08229, N-(5-cyclobutyl-1H-pyrazol-3-yl)-2-(4-(4-((2-(2,4-dioxotetrahydropyrimidin-1(2H)-yl)-1-oxoisoindolin-5-yl)methyl)piperazin-1-yl)phenyl)acetamide]			10 to 20%	10 to 20%	20 to 30%	30 to 40%
Cn1ncc(-c2nc(NC3CCN(CC4CCN(c5cccc6c5C(=O)N(N5CCC(=O)NC5=O)C6=O)CC4)CC3)ncc2Cl)c1CC1CC1 [GT-08347, 4-(4-((4-((5-chloro-4-(5-(cyclopropylmethyl)-1-methyl-1H-pyrazol-4-yl)pyrimidin-2-yl)amino)piperidin-1-yl)methyl)piperidin-1-yl)-2-(2,4-dioxotetrahydropyrimidin-1(2H)-yl)isoindoline-1,3-dione]			20 to 30%	10 to 20%	5 to 10%	20 to 30%

Second part, led by results:

Degradation of substrate protein CDK6 (substrate protein remaining %) [2]	SMILES	Degradation of substrate protein CDK4 (substrate protein remaining %) [1]	inhibition at 0.01 µM [3]	inhibition at 0.5 µM [4]	inhibition at 0.01 µM [5]	inhibition at 0.5 µM [5]
A (0%≤substrate protein remaining %≤80%)	CN(C)C(=O)c1cc2cnc(Nc3ccc(N4CCC(CN5CC6CCC(C5)N6c5ccc6c(c5)C(=O)N(N5CCC(=O)NC5=O)C6=O)CC4)cn3)nc2n1C1CCCC1 [GT-05200, 7-cyclopentyl-2-((5-(4-((8-(2-(2,4-dioxotetrahydropyrimidin-1(2H)-yl)-1,3-dioxoisoindolin-5-yl)-3,8-diazabicyclo[3.2.1]octan-3-yl)methyl)piperidin-1-yl)pyridin-2-yl)amino)-N,N-dimethyl-7H-pyrrolo[2,3-d]pyrimidine-6-carboxamide]	B (80%<substrate protein remaining %≤100%)				
A (0%≤substrate protein remaining %≤80%)	CN(C)C(=O)c1cc2cnc(Nc3ccc(N4CCC(CN5CCN(C6CCN(c7ccc8c(c7)C(=O)N(N7CCC(=O)NC7=O)C8=O)CC6(F)F)CC5)CC4)cn3)nc2n1C1CCCC1 (stereo not shown) [GT-05206, 7-cyclopentyl-2-((5-(4-((4-(1-(2-(2,4-dioxotetrahydropyrimidin-1(2H)-yl)-1,3-dioxoisoindolin-5-yl)-3,3-difluoropiperidin-4-yl)piperazin-1-yl)methyl)piperidin-1-yl)pyridin-2-yl)amino)-N,N-dimethyl-7H-pyrrolo[2,3-d]pyrimidine-6-carboxamide]	B (80%<substrate protein remaining %≤100%)				
A (0%≤substrate protein remaining %≤80%)	CN(C)C(=O)c1cc2cnc(Nc3ccc(N4CCC(N5CCN(Cc6ccc7c(c6)C(=O)N(N6CCC(=O)NC6=O)C7=O)CC5)CC4)cn3)nc2n1C1CCCC1 [GT-06498, 7-cyclopentyl-2-((5-(4-(4-((2-(2,4-dioxotetrahydropyrimidin-1(2H)-yl)-1,3-dioxoisoindolin-5-yl)methyl)piperazin-1-yl)piperidin-1-yl)pyridin-2-yl)amino)-N,N-dimethyl-7H-pyrrolo[2,3-d]pyrimidine-6-carboxamide]	A (0%≤substrate protein remaining %≤80%)				
A (0%≤substrate protein remaining %≤80%)	CN(C)C(=O)c1cc2cnc(Nc3ccc(N4CCC(N5CCN(Cc6ccc7c(c6)CN(N6CCC(=O)NC6=O)C7=O)CC5)CC4)cn3)nc2n1C1CCCC1 [GT-06497, 7-cyclopentyl-2-((5-(4-(4-((2-(2,4-dioxotetrahydropyrimidin-1(2H)-yl)-1-oxoisoindolin-5-yl)methyl)piperazin-1-yl)piperidin-1-yl)pyridin-2-yl)amino)-N,N-dimethyl-7H-pyrrolo[2,3-d]pyrimidine-6-carboxamide]	A (0%≤substrate protein remaining %≤80%)				
A (0%≤substrate protein remaining %≤80%)	CN(C)C(=O)c1cc2cnc(Nc3ccc(N4CCC(CN5C6CC5CN(c5ccc7c(c5)C(=O)N(N5CCC(=O)NC5=O)C7=O)C6)CC4)cn3)nc2n1C1CCCC1 [GT-05820, 7-cyclopentyl-2-((5-(4-((3-(2-(2,4-dioxotetrahydropyrimidin-1(2H)-yl)-1,3-dioxoisoindolin-5-yl)-3,6-diazabicyclo[3.1.1]heptan-6-yl)methyl)piperidin-1-yl)pyridin-2-yl)amino)-N,N-dimethyl-7H-pyrrolo[2,3-d]pyrimidine-6-carboxamide]	B (80%<substrate protein remaining %≤100%)				
